Earlier results in patent US20240050377A1, “ORAL SOLID CANNABINOID OIL COMPOSITION FOR TREATING CENTRAL NERVOUS SYSTEM DISORDERS” (SOCIETE DES PRODUITS NESTLE S.A., priority 2021, published 2024).
Several values for one entry are separate records, joined by “and”; a condition that tells them apart may be missing. Equal values may be shown once. Read-outs that look alike come from different tables or passages of the source.

Columns and labels:
[1] = low pH of the stomach; simulated gastric fluid
[2] = humans

For `C=C(C)[C@@H]1CCC(C)=C[C@H]1c1c(O)cc(CCCCC)cc1O` [CBD, cannabidiol], the “degradation in stomach environment” value [1] is given as “high levels of CBD degradation”, the mean half-life ([2]; aerosol administration) is given as 1.1 to 2.4 h and the mean half-life ([2]; oral lipid capsule administration) is given as 2.95 h and 3.21 h. For the same compound, the mean half-life ([2]; single oral administration) was 1.09 to 1.97 h.
